Test results: patent US20230149401A1 (priority 2020, published 2023)

Columns and labels:
PACE4 (PCSK6) = target: T1, PACE4 (PCSK6) (Homo sapiens, UniProt P29122); assay: Biochemical PC-inhibition assay, substrate FAM-[…]-TAMRA
T1 construct: PACE4 (PCSK6; 150-693-Tev-Flag-6His); Tev site (C); Flag (C); 6His (C); made in house; host or cells: BacMam transduced CHO cells
Experimental: (§1) Biochemical assay: The proprotein convertases furin (108-574-Tev-Flag-6His), PC5A (PCSK5; […]-Tev-Flag-6His), PACE4 (PCSK6; 150-693-Tev-Flag-6His), and PC7 (PCSK7; 142-634-Tev-Flag-6His) enzymes were purified from BacMam transduced CHO cells. […] 0.05 μl of each concentration was transferred to the corresponding well of an assay plate, and then 5 μl of enzyme (furin, PCSK5, PCSK6, and PCSK7) in assay buffer (100 mM HEPES pH 7.5, 1 mM CaCl2) and 0.005% Triton X-100) was added using a Multidrop Combi (Thermo) to the compound plates to give a final protein concentration of 0.02, 0.5, 2.5, and 1.0 nM respectively. The plates were mixed by inversion, and following a 30 min preincubation of enzyme with compound at room temperature (˜22° C.), the substrate FAM-[…] -TAMRA (AnaSpec #808143, 5 μl of a 1, 0.25, 0.20, and 0.5 μM solution in assay buffer for furin, PCSK5, PCSK6, and PCSK7 respectively) was added using a Multidrop Combi to the entire assay plate. The plates were centrifuged at 500×g for 1 minute and incubated at room temperature for two hours. Enzyme inhibition was then quantified using an Envision instrument (PerkinElmer). Data were normalized to maximal inhibition determined by 1 μM Decanoyl-Arg-Val-Lys-Arg-Chloromethylketone (Calbiochem #344930). Golgi imaging assay: This assay uses an image-based platform to evaluate the intracellular activity of furin inhibitors. Reactions were performed in black 384-well, tissue culture-treated, clear bottom plates (Greiner). Compounds under analysis were dissolved in DMSO (1.0 mM) and serially diluted 1 to 3 with DMSO through eleven dilutions. This creates a final compound concentration range from 0.00017 to 10 μM, and 0.1 μL of each concentration was transferred to the corresponding well of the assay plate.

PC5A (PCSK5) = target: T2, PC5A (PCSK5) (Homo sapiens, UniProt Q92824); assay: as above
T2 construct: fused on or other part: C-terminal Tev site, Flag tag and 6His tag
T2 sequence (Q92824 115-601): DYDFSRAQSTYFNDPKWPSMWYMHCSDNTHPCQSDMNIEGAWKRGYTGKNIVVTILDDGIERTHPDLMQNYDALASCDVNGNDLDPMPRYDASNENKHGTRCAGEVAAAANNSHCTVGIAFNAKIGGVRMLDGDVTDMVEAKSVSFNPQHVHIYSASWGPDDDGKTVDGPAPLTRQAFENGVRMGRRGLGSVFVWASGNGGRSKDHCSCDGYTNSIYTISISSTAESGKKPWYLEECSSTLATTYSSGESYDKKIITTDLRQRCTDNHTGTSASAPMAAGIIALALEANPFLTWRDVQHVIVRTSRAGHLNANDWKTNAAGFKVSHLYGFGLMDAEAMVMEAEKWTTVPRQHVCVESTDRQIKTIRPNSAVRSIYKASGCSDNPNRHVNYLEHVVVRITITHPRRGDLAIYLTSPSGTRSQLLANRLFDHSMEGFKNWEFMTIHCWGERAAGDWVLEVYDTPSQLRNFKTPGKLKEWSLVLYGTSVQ
Experimental: as §1

PC7 (PCSK7) = target: T3, PC7 (PCSK7) (Homo sapiens, UniProt Q16549); assay: as above
T3 construct: PC7 (PCSK7; 142-634-Tev-Flag-6His); Tev site (C); Flag (C); 6His (C); made in house; host or cells: BacMam transduced CHO cells
T3 sequence (Q16549 142-634): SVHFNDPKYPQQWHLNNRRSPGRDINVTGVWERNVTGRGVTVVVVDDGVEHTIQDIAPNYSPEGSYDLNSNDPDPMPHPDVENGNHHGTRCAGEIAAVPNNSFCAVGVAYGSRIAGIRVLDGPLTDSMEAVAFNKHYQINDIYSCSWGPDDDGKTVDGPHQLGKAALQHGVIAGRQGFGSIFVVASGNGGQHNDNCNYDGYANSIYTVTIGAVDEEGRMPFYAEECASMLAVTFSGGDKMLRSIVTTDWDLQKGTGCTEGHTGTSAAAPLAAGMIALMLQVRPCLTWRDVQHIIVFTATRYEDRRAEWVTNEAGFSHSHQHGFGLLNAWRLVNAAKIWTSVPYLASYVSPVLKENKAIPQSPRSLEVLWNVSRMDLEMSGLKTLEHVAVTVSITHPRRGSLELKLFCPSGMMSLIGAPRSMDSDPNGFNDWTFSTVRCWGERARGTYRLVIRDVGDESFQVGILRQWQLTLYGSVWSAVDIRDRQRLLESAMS
Experimental: as §1

[1] = tested on: endogenous furin-like enzymes; type: cell-based; conditions: HeLa-ACE2 cells
[2] = tested on: SARS-CoV-2 Spike ACE2-dependent cell-to-cell fusion; assay: microbe, parasite or virus in culture; type: cell-based; conditions: Severe acute respiratory syndrome coronavirus 2; 300 nM
[3] = tested on: HIV particles pseudotyped with SARS-CoV-2 S; type: cell-based
furin-like convertases = type: cell-based; conditions: 1 μM; 293T17 producing cells and pseudovirions
SARS-CoV-2 [4] = assay: microbe, parasite or virus in culture; type: cell-based
SARS-CoV-2 [5] = type: cell-based
TMPRSS2 = TMPRSS2 (Homo sapiens, UniProt O15393); type: cell-based; parameters: expressed in transfected cells; host or cells: HeLa; conditions: HeLa cells
TMPRSS2, sequence (O15393 whole entry): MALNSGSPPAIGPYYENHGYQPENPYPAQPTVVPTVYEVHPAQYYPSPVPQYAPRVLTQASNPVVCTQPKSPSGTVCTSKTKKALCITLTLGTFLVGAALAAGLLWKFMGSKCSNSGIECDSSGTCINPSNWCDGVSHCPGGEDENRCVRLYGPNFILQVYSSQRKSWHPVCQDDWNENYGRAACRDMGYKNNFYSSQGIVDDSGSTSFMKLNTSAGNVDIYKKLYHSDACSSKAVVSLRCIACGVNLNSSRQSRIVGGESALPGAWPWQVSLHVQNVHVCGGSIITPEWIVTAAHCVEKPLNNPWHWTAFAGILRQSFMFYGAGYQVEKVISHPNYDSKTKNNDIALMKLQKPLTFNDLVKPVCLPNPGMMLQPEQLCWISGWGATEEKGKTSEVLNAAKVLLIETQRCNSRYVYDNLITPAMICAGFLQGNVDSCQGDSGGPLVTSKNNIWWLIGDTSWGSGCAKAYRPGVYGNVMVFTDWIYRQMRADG

T1 sequence (P29122 150-693): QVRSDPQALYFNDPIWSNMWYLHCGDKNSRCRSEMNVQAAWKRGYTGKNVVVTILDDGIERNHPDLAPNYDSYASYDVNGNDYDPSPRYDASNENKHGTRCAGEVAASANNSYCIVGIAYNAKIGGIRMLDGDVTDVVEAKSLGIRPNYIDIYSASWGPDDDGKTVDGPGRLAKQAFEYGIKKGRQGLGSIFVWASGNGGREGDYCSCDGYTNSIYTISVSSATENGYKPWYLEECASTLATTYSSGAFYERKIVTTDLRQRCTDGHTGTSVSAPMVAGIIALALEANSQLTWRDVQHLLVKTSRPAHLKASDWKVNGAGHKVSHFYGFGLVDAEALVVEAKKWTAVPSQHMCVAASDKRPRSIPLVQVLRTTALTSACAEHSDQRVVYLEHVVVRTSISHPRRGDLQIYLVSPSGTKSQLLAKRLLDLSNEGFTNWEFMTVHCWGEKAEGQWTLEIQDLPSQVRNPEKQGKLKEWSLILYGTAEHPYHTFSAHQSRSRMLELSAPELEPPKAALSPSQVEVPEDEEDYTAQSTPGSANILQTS

`CN1CCN(c2ncc(Oc3cc(CN4CCC(CC(=O)O)CC4)cc(-c4cc(Cl)cc(Cl)c4)n3)cn2)CC1` [Compound 93, 2-(1-((2-(3,5-dichloro-phenyl)-6-((2-(4-methyl-piperazin-1-yl)pyrimidin-5-yl)oxy)pyridin-4-yl)methyl)piperidin-4-yl)acetic acid] showed an IC50 (PACE4 (PCSK6)) of about 7 nM, an IC50 (PC5A (PCSK5)) of about 7 nM and an IC50 (PC7 (PCSK7)) of about 7 nM. The “S1/S2 and S2′ processing by endogenous furin-like enzymes” value [1] was “blocked”, the inhibition at 0.3 µM [2] was over 60% and the “Viral entry in Calu-3 of pseudovirions packaged in presence of inhibitor” value [3] was “prevents viral entry”. For the same compound, the “Processing of WT-S” value (furin-like convertases) was “clearly impaired”, the “Concentration from which inhibitory effect could be observed” value (SARS-CoV-2 [4]) was 0.25 µM and the “Levels of viral spike and nucleocapsid proteins and progeny virus levels” value (SARS-CoV-2 [4]) was “similarly decreased”. The “Viral titers at 12, 24 and 48h post-infection” value (SARS-CoV-2 [4]) was “significantly decreased”, the “Reduction of titer of progeny viruses” value (SARS-CoV-2 [4]; 1 μM) was “more than 30 fold” and the IC50 (SARS-CoV-2 [4]; Severe acute respiratory syndrome coronavirus 2, Calu-3, 24 h, read-out: IC50 (virus titer)) was 200 nM. For the same compound, the “Virus production in infected Vero E6 cells” value (SARS-CoV-2 [5]) was “modestly reduce virus production”, the “Decrease in virus production” value (SARS-CoV-2 [5]; 1 μM) was about 5.7 fold and the “Generation of S2a and S2b by TMPRSS2” value (TMPRSS2) was “none of the compounds affected”.
